Assay results as given in patent US9809623B2, “α4β7 peptide monomer and dimer antagonists” (Protagonist Therapeutics, Inc., priority 2014, dated 2017).
pIC50: −log10 of the molar value. Like-named read-outs stand apart in the source and are kept apart here. Numbered stars: 1 amine (or outer) side, 2 acyl side, 3 side chain; on linkers, the order of the positions; unused ones are H or OH. Bridge positions count the residues as written; N and C are the ends. Square brackets hold non-standard residues; d marks the D form. Peptide text beside a SMILES is read from it. I, II: the chains in the order shown. Phe(4-tBu) = CC(C)(C)c1ccc(C[C@H](N)C(=O)O)cc1; 2Nal = N[C@@H](Cc1ccc2ccccc2c1)C(=O)O; Diglycolyl = O=C(COCC(=O)[*:2])[*:1]; NMeR = CN[C@@H](CCCNC(=N)N)C(=O)O; hPhe = N[C@@H](CCc1ccccc1)C(=O)O; Aic = NC1(C(=O)O)Cc2ccccc2C1; Pen = CC(C)(S)[C@H](N)C(=O)O; βAla = NCCC(=O)O

Legend:
[1] = biological target: T1, α4β1 (Homo sapiens, UniProt P05556+P13612, DEL729-798); test: α4β1-VCAM Competition ELISA; assay type: binding; settings: Table 3-B, Selectivity (α4β1); range classes; read-out: α4β1 ELISA IC50
T1 construct: purchased R&D Systems 5668-A4
Method: A Nunc MaxiSorp plate was coated with rh VCAM-1/CD106 Fc chimera (R&D #862-VC) at 400 ng/well in 50 ul per well in 1×PBS and incubated overnight at 4° C. The solution was removed by shaking and then blocked with 250 ul of 1% BSA in 1×PBS per well. The wells were then incubated at room temperature for 1 hr with shaking. Each well was then washed once with wash buffer (50 mM Tris-HCl pH7.6, 100 mM NaCL, 1 mM MnCl2 or MgCl2, 0.05% Tween-20). 25 ul of serial dilutions of peptides starting at 200 μM in assay buffer (Assay buffer: 50 mM Tris-HCl pH7.6, 100 mM NaCl, 1 mM MnCl2 or MgCl2, 0.05% Tween-20) was added to each well. Additionally, 25 ul of α4β1 (R&D Systems #5668-A4) was added to each well at a fixed concentration of 120 nM. The final peptide and α4β1 concentrations were 100 μM and 60 nM, respectively. The plates were then incubated at 37° C. for 2 hr. The solution was then removed by shaking, and each well was washed three times with wash buffer. 50 ul of 9F10 antibody at 4 ug/ml (purified mouse anti-human CD49d, BD Bioscience Cat#555502) was then added to each well, and the plate was incubated at room temperature for 1 hr with shaking. The solution was again removed by shaking, and each well was washed three times with wash buffer. 50 ul of peroxidase-conjugated AffiniPure Goat anti-mouse IgG (Jackson immune research cat #115-035-003) diluted in 1:5000 in assay buffer was added to each well. The plate was incubated at room temperature for 30 min with shaking. Each well was then washed 3 times with wash buffer. 100 ul of TMB was then added to each well and closely observe during developing time. The reaction was stepped with 2N H2SO4 and absorbance was read at 450 nm.

[2] = Simulated Intestinal Fluid (SIF) Stability Assay; assay type: in vitro ADME, porcine; settings: pig, pH 6.5, Table 3-B, > means experiment was stopped at that time and half life was not reached, read-out: Stabilty SIF t1/2
Procedure, shortened: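 Peptides (22 μM final) incubated at 37 °C in FASSIF (pH 6.5) with 1% porcine pancreatin; aliquots quenched at various times and analyzed by LC-MS/MS against internal standard. Half-life from first-order exponential decay fit of percent remaining.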

[3] = biological target: α4β7 (Homo sapiens, UniProt P13612+P26010); test: α4β7-MAdCAM Cell Adhesion Assay (RPMI 8866 human cells); assay type: cell-based; parameters: host or cells: RPMI 8866 human B lymphoblastoid cells; settings: Table 3-B, Potency (α4β7); range classes; read-out: α4β7 cell (Hu) IC50
Procedure, shortened: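 Washed RPMI 8866 cells (200,000/well) in DMEM with 0.1% BSA, 10 mM HEPES pH 7, 1 mM MnCl2 adhered to rh MAdCAM-1/Fc-coated wells with serially diluted peptides, 30-45 min at 37 °C. After three washes, bound cells quantified by MTT, A570, cell-free background subtracted for dose response.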

[4] = biological target: T2, rh integrin α4β7 (Homo sapiens, UniProt P13612+P26010); test: α4β7-MAdCAM Competition ELISA; assay type: binding; settings: Table 3-B, Potency (α4β7); range classes; read-out: α4β7 ELISA IC50
T2 construct: purchased R&D Systems 5397-A30
Method: A nickel coated plate (Pierce #15442) was coated with rh integrin α4β7 (R&D Systems #5397-A30) at 800 ng/well and incubated at room temperature with shaking for 1 hr. The solution was then removed by shaking and blocked with assay buffer (50 mM Tris-HCl pH7.6, 150 mM NaCl, 1 mM MnCl2 or MgCl2, 0.05% Tween-20 and 0.5% BSA) at 250 ul/well. The plate was then incubated at room temperature for 1 hr. Each well was washed 3 times with wash buffer (50 mM Tris-HCl pH7.6, 100 mM NaCl, 1 mM MnCl2 or MgCl2, 0.05% Tween-20). To each well was added 25 ul of a serial dilution (3-fold dilutions in assay buffer) of peptide starting at 20 μM. 25 ul of recombinant human MAdCAM-1 (R&D Systems #6056-MC) was then added to each well at a fixed concentration 20 nM. The final starting peptide concentration was 10 μM, and the final MAdCAM-1 concentration was 10 nM. The plates were then incubated at room temperature for 1 hr to reach binding equilibrium. The wells were then washed three times with wash buffer. 50 ul of mouse anti-human IgG1-HRP (Invitrogen # A10648) diluted in 1:2000 in assay buffer was then added to each well. The wells were incubated at room temperature for 45 min with shaking. The wells were then washed 3 times with wash buffer. 100 ul of 3,3′,5,5′-Tetramethylbenzidine (TMB) were then added to each well and closely observe during development time. The reaction was stopped with 2N H2SO4 and absorbance was read at 450 nm.
TMB is a chromogenic substrate suitable for use in ELISA procedures, which utilize horseradish peroxidase conjugates. This substrate produces a soluble end product that is blue in color and can be read spectrophotometrically at 370 or 655 nm. The reaction maybe stopped with 2 M H2S04, resulting in a yellow solution that is read at 450 nm. Each tablet contains 1 mg of TMB substrate. To prepare TMB Substrate Solution, dissolve one 3,3′,5,5′-tetramethylbenzidine tablet in 1 ml of DMSO and add to 9 ml of 0.05 M Phosphate-Citrate Buffer, pH 5.0. Add 2 μl of fresh 30% hydrogen peroxide (Product No. H 1009) per 10 ml of substrate buffer solution, immediately prior to use.

[5] = simulated intestinal fluid (SIF) with 1% porcine pancreatin
[6] = simulated intestinal fluid (SIF) with porcine pancreatin

α4β7, sequence (P13612 34-1032): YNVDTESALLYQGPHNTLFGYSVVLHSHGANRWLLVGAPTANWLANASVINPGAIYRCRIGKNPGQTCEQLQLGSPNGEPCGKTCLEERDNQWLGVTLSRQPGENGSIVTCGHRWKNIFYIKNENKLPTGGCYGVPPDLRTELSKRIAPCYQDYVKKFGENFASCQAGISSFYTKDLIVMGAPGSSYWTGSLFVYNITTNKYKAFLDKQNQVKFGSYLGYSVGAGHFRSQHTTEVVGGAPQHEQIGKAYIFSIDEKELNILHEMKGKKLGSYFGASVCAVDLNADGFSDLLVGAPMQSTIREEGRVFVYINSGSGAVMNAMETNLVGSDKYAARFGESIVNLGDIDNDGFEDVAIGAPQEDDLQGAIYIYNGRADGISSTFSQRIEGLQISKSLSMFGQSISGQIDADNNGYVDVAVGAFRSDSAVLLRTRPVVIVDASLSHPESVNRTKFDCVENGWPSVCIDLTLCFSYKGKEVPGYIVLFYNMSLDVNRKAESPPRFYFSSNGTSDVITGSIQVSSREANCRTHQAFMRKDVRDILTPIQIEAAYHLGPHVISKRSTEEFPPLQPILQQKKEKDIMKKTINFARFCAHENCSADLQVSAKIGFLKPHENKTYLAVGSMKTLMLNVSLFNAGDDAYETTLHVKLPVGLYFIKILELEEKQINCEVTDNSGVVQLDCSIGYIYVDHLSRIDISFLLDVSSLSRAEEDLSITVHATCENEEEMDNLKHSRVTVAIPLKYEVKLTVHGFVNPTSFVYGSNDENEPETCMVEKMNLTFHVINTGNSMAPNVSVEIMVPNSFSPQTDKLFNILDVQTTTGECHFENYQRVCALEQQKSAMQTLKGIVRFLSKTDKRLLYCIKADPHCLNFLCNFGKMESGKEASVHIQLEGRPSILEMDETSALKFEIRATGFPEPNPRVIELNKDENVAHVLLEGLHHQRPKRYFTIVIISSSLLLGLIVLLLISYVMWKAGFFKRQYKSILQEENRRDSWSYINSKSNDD
α4β7, sequence (P26010 20-798): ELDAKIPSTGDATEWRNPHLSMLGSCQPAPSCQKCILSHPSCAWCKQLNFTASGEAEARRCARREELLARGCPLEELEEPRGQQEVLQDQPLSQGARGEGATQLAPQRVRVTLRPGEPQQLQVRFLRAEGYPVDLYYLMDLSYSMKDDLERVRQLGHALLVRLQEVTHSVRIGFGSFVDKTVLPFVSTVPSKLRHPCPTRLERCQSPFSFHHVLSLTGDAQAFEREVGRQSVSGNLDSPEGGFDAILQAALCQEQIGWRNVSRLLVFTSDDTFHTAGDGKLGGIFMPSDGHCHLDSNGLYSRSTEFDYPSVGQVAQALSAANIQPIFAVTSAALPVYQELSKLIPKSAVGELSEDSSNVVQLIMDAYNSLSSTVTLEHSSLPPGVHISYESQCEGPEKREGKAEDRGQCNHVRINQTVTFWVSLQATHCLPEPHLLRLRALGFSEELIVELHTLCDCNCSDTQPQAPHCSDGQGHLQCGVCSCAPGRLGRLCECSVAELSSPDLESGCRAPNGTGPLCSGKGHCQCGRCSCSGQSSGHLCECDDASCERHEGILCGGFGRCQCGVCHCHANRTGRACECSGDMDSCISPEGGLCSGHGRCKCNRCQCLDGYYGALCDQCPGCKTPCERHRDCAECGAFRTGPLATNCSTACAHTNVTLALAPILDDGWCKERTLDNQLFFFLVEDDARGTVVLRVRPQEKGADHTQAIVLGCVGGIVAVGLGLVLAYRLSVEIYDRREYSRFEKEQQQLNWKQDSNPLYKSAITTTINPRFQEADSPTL
T2 sequence (P13612 34-977 limits assumed): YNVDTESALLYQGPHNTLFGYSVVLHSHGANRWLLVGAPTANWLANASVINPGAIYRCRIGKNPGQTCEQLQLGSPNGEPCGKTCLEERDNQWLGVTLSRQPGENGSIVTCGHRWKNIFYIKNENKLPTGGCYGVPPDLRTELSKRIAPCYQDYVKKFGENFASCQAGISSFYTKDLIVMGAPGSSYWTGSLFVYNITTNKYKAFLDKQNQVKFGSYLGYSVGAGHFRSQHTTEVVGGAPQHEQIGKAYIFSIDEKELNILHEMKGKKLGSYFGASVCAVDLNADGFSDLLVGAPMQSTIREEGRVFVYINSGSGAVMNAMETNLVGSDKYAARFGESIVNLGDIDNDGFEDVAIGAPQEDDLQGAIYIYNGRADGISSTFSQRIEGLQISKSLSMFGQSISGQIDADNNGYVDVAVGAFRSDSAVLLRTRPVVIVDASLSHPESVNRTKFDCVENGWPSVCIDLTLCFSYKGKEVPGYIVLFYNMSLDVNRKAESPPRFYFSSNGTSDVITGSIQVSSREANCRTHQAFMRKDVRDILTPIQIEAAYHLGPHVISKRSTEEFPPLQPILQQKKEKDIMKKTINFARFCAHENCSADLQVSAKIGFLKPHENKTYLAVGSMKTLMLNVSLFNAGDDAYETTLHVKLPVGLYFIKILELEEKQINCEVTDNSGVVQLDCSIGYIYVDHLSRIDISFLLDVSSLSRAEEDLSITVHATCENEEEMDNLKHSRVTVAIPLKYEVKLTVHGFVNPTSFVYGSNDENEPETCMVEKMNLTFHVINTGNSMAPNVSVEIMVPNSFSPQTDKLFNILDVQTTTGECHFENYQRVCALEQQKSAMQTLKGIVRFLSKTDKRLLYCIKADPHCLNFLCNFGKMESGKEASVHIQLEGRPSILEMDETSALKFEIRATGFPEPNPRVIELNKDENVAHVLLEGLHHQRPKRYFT
T2 sequence (P26010 20-723 limits assumed): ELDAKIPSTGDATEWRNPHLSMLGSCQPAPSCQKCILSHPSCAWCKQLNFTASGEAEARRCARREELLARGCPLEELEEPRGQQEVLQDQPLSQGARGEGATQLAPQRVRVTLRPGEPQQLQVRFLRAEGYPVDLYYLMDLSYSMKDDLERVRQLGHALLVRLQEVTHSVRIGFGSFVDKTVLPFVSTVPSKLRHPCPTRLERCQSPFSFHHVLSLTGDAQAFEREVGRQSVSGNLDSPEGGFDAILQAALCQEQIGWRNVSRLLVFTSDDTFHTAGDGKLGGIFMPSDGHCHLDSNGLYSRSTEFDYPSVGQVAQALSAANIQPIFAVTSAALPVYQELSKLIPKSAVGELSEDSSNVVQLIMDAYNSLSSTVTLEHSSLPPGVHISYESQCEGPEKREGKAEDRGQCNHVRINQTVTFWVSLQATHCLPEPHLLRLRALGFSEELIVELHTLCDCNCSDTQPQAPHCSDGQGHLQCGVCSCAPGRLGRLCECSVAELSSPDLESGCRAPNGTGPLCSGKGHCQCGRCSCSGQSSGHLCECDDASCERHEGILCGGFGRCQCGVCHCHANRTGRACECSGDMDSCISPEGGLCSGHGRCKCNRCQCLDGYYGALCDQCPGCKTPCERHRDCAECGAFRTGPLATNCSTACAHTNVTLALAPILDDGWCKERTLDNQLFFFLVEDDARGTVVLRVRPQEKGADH
T1 sequence (P13612 34-977 limits assumed, stated change not applied): as the sequence (P13612 34-977 limits assumed) above
T1 sequence (P05556 21-728 limits assumed, stated change not applied): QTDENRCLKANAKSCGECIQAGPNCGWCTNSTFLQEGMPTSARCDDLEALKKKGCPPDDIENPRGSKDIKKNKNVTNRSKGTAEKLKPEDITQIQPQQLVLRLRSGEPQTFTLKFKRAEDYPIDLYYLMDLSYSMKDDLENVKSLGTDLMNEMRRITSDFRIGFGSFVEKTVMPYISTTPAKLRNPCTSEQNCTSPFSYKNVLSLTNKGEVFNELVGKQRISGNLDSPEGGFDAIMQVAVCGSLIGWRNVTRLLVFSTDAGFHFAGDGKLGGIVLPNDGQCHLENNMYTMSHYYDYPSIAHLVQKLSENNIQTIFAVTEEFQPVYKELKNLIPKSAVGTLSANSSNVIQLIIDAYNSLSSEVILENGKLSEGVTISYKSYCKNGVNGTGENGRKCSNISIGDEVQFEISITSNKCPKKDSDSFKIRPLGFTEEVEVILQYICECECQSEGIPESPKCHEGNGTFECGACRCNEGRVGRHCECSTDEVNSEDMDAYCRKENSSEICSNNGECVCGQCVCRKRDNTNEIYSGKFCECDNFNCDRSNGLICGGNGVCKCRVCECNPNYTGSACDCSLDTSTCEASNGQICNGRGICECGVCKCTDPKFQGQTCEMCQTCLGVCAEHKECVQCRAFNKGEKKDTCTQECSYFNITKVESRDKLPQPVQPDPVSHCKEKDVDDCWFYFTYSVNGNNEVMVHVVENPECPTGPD

Compound	pIC50 [1]	half-life at 22 μM [2, 5] [h]	pIC50 [3]	pIC50 [4]	half-life at 22 μM [2, 6] [h]
CC(=O)N[C@@H]1C(=O)N(C)[C@@H](CCCNC(=N)N)C(=O)N[C@@H](CO)C(=O)N[C@@H](CC(=O)O)C(=O)N[C@@H]([C@@H](C)O)C(=O)N[C@@H](CC(C)C)C(=O)N[C@H](C(=O)N[C@@H](Cc2ccc3ccccc3c2)C(=O)N[C@@H](Cc2ccc(O)cc2)C(=O)N[C@H](CCCCNC(=O)COCC(=O)NCCCC[C@@H](NC(=O)[C@H](Cc2ccc(O)cc2)NC(=O)[C@H](Cc2ccc3ccccc3c2)NC(=O)[C@H]2NC(=O)[C@H](CC(C)C)NC(=O)[C@H]([C@@H](C)O)NC(=O)[C@H](CC(=O)O)NC(=O)[C@H](CO)NC(=O)[C@H](CCCNC(=N)N)N(C)C(=O)[C@@H](NC(C)=O)C(C)(C)SSC2(C)C)C(N)=O)C(N)=O)C(C)(C)SSC1(C)C [compound 23] (I: Ac-[Pen][NMeR]SDTL[Pen][2Nal]Y[dK]-NH2 / II: Ac-[Pen][NMeR]SDTL[Pen][2Nal]Y[dK]-NH2; disulfide I:1-I:7, II:1-II:7; linker I:10-II:10 via Diglycolyl)	6.30 to 7.00	< 0.333	> 8.00		
CC(=O)N[C@@H]1C(=O)N(C)[C@@H](CCCNC(=N)N)C(=O)N[C@@H](CO)C(=O)N[C@@H](CC(=O)O)C(=O)N[C@@H]([C@@H](C)O)C(=O)N[C@@H](CC(C)C)C(=O)N[C@H](C(=O)N[C@@H](Cc2ccc3ccccc3c2)C(=O)N[C@H](CCC(=O)O)C(=O)N[C@H](CCCCNC(=O)COCC(=O)NCCCC[C@@H](NC(=O)[C@@H](CCC(=O)O)NC(=O)[C@H](Cc2ccc3ccccc3c2)NC(=O)[C@H]2NC(=O)[C@H](CC(C)C)NC(=O)[C@H]([C@@H](C)O)NC(=O)[C@H](CC(=O)O)NC(=O)[C@H](CO)NC(=O)[C@H](CCCNC(=N)N)N(C)C(=O)[C@@H](NC(C)=O)C(C)(C)SSC2(C)C)C(N)=O)C(N)=O)C(C)(C)SSC1(C)C [compound 29] (I: Ac-[Pen][NMeR]SDTL[Pen][2Nal][dE][dK]-NH2 / II: Ac-[Pen][NMeR]SDTL[Pen][2Nal][dE][dK]-NH2; disulfide I:1-I:7, II:1-II:7; linker I:10-II:10 via Diglycolyl)		> 3	7.60 to 8.00	> 8.00	
CC(=O)N[C@@H]1C(=O)N(C)[C@@H](CCCNC(=N)N)C(=O)N[C@@H](CO)C(=O)N[C@@H](CC(=O)O)C(=O)N[C@@H](CC(=O)O)C(=O)N[C@@H](CC(C)C)C(=O)N[C@H](C(=O)N[C@@H](Cc2c[nH]c3ccccc23)C(=O)N[C@@H](CCC(=O)O)C(=O)N[C@H](CCCCN)C(N)=O)C(C)(C)SSC1(C)C [compound 46] (Ac-[Pen][NMeR]SDDL[Pen]WE[dK]-NH2; disulfide 1-7)		> 3		5.00 to 6.00	
CC(=O)N[C@@H]1C(=O)N(C)[C@@H](CCCNC(=N)N)C(=O)N[C@H](CC(=O)O)C(=O)N[C@@H](CC(=O)O)C(=O)N[C@@H]([C@@H](C)O)C(=O)N[C@@H](CC(C)C)C(=O)N[C@H](C(=O)N[C@@H](Cc2c[nH]c3ccccc23)C(=O)N[C@@H](CCC(=O)O)C(=O)N[C@H](CCCCN)C(N)=O)C(C)(C)SSC1(C)C [compound 48] (Ac-[Pen][NMeR][dD]DTL[Pen]WE[dK]-NH2; disulfide 1-7)		> 3		5.00 to 6.00	
CC(=O)N[C@@H]1C(=O)N(C)[C@@H](CCCNC(=N)N)C(=O)N[C@@H](CO)C(=O)N[C@@H](CC(=O)O)C(=O)N[C@@H]([C@@H](C)O)C(=O)N[C@@H](CC(C)C)C(=O)N[C@H](C(=O)N[C@@H](Cc2c[nH]c3ccccc23)C(=O)N[C@@H](CCC(=O)O)C(=O)N2CCC[C@H]2C(=O)N[C@H](CCCCN)C(N)=O)C(C)(C)SSC1(C)C [compound 49] (Ac-[Pen][NMeR]SDTL[Pen]WEP[dK]-NH2; disulfide 1-7)		> 3		7.60 to 8.00	
CC(=O)N[C@@H]1C(=O)N(C)[C@@H](CCCNC(=N)N)C(=O)N[C@@H](CO)C(=O)N[C@@H](CC(=O)O)C(=O)N[C@@H]([C@@H](C)O)C(=O)N[C@@H](CC(C)C)C(=O)N[C@H](C(=O)N[C@@H](Cc2ccc3ccccc3c2)C(=O)N[C@@H](CCc2ccccc2)C(=O)N[C@H](CCCCN)C(N)=O)C(C)(C)SSC1(C)C [compound 50] (Ac-[Pen][NMeR]SDTL[Pen][2Nal][hPhe][dK]-NH2; disulfide 1-7)		1.73		7.60 to 8.00	
CC(=O)N[C@@H]1C(=O)N(C)[C@@H](CCCNC(=N)N)C(=O)N[C@@H](CO)C(=O)N[C@@H](CC(=O)O)C(=O)N[C@@H]([C@@H](C)O)C(=O)N[C@@H](CC(C)C)C(=O)N[C@H](C(=O)N[C@@H](Cc2c[nH]c3ccccc23)C(=O)NC2(C(=O)N[C@H](CCCCN)C(N)=O)Cc3ccccc3C2)C(C)(C)SSC1(C)C [compound 51] (Ac-[Pen][NMeR]SDTL[Pen]W[Aic][dK]-NH2; disulfide 1-7)		3		7.30 to 7.60	
CC(C)C[C@@H]1NC(=O)[C@H]([C@@H](C)O)NC(=O)[C@H](CC(=O)O)NC(=O)[C@H](CO)NC(=O)[C@H](CCCNC(=N)N)N(C)C(=O)[C@@H](NC(=O)CCN)C(C)(C)SSC(C)(C)[C@@H](C(=O)N[C@@H](Cc2c[nH]c3ccccc23)C(=O)N[C@@H](CCC(=O)O)C(N)=O)NC1=O [compound 52] (H-[βAla][Pen][NMeR]SDTL[Pen]WE-NH2; disulfide 2-8)			6.30 to 7.00	7.60 to 8.00	1.95
CC(C)C[C@@H]1NC(=O)[C@H]([C@@H](C)O)NC(=O)[C@H](CC(=O)O)NC(=O)[C@H](CO)NC(=O)[C@H](CCCNC(=N)N)N(C)C(=O)[C@@H](NC(=O)CCN)C(C)(C)SSC(C)(C)[C@@H](C(=O)N[C@@H](Cc2c[nH]c3ccccc23)C(=O)N[C@H](CCC(=O)O)C(N)=O)NC1=O [compound 53] (H-[βAla][Pen][NMeR]SDTL[Pen]W[dE]-NH2; disulfide 2-8)				7.60 to 8.00	> 3
CC(=O)N[C@@H]1C(=O)N(C)[C@@H](CCCNC(=N)N)C(=O)N[C@@H](CO)C(=O)N[C@@H](CC(=O)O)C(=O)N[C@@H]([C@@H](C)O)C(=O)N[C@@H](CC(C)C)C(=O)N[C@H](C(=O)N[C@@H](Cc2ccc(C(C)(C)C)cc2)C(=O)O)C(C)(C)SSC1(C)C [compound 151] (Ac-[Pen][NMeR]SDTL[Pen][Phe(4-tBu)]-OH; disulfide 1-7)		3.12	7.00 to 7.30	7.60 to 8.00	
